Earlier results on one molecule are cited in US9084801B2, “Use of an omega-3 lipid-based emulsion following ischemic injury to provide protection and recovery in human organs” (THE TRUSTEES OF COLUMBIA UNIVERSITY IN THE CITY OF NEW YORK, priority 2005, dated 2015).

Series [1] deals with adult Sprague-Dawley rats, kainate-induced seizures. As to conditions: intravenous, given before and/or after neurologic insult.
Series [2] has as its system adult Sprague-Dawley rats, global ischemia via four vessel occlusion. As to conditions: intravenous, given before and/or after neurologic insult.

`CC/C=C\C/C=C\C/C=C\CCCCCCCC(=O)O` [α-linolenic acid]: the “protection in kainate-induced seizures” value in series [1] is given as “protective”. Further, the “protection in global ischemia” value in series [2] is given as “protective”.
